In US20070259879A1, “Piperazine and piperidine biaryl derivatives” (priority 2006, published 2007) one finds IC50 data, which are given here for 31 molecules.

A value given as a limit tells only on which side of the number the result lay.

The assay has as its system HIV-1 pseudotyped virus. The experiment in a line: HIV-1 pseudotyped virus assay (luciferase reporter gene, single cycle of infection). Format: cell-based. As to conditions: Human immunodeficiency virus 1, CCR5, 72 h, read-out: Activity (antiviral activity, IC50). An outline of the steps:
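Single-cycle luciferase-reporter pseudovirus made by co-transfecting 293T cells with HIV-1 envelope plasmid plus env-defective, nef-replaced backbone; infects CD4/CCR5 or CXCR4 target cells. Compounds added before virus, serial dilutions in duplicate, two experiments; 3-day culture, lysis, luminescence. IC50 = 50% signal reduction interpolated from titration curve.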
Regarding `Cc1cc(-c2ccc(C(=O)C(=O)N3CCN(C(=O)c4ccccc4)C[C@H]3C)cc2)on1` [Example 102, 1-((R)-4-Benzoyl-2-methyl-piperazin-1-yl)-2-[4-(3-methyl-isoxazol-5-yl)-phenyl]-ethane-1,2-dione], the IC50 is less than 5 µM.

For `C[C@@H]1CN(C(=O)c2ccccc2)CCN1S(=O)(=O)c1ccc(-c2csnn2)cc1` [Example 134, [(R)-3-methyl-4-(4-[1,2,3]thiadiazol-4-yl-benzenesulfonyl)-piperazin-1-yl]-phenyl-methanone], the IC50 is more than 5 µM.

On to `Cc1cc(-c2ccc(C(=O)C(=O)N3CCN(C(=O)c4ccccc4)C[C@H]3C)c(O)c2)on1` [Example 224], for which the IC50 was more than 5 µM. Then `COc1cc(-n2ccnn2)c(Cl)cc1C(=O)C(=O)N1CCN(C(=O)c2ccccc2)CC1` [Example 236], with less than 5 µM. Then `C[C@@H]1CN(C(=O)c2ccccc2)CCN1C(=O)C(=O)c1ccc(-c2nc[nH]n2)cc1` [Example 234], with less than 5 µM; and `Cc1cc(-n2ccnc2)ccc1C(=O)C(=O)N1CCN(C(=O)c2ccccc2)C[C@H]1C` [Example 218], with less than 5 µM; and `C[C@@H]1CN(C(=O)c2ccccc2)CCN1C(=O)C(=O)c1ccc(-c2cccnc2)cc1` [Example 199], with less than 5 µM. `Cc1cc(-c2cc[nH]n2)ccc1C(=O)C(=O)N1CCN(C(=O)c2ccccc2)C[C@H]1C` [Example 181, 1-((R)-4-Benzoyl-2-methyl-piperazin-1-yl)-2-[2-methyl-4-(1H-pyrazol-3-yl)-phenyl]-ethane-1,2-dione]: the IC50 is less than 5 µM. As for `C[C@@H]1CN(C(=O)c2ccccc2)CCN1C(=O)C(=O)c1ccc(-c2ncccn2)cc1` [Example 203], the IC50 is less than 5 µM. Then `C[C@@H]1CN(C(=O)c2ccccc2)CCN1S(=O)(=O)c1ccc(-c2cc(-c3ccccc3)no2)cc1` [Example 124, {(R)-3-Methyl-4-[4-(3-phenyl-isoxazol-5-yl)-benzenesulfonyl]-piperazin-yl}-phenyl-methanone], with more than 5 µM. For `CC1CN(C(=O)c2ccccc2)CCN1C(=O)C(=O)c1ccc(-c2ncccc2F)cc1` (stereo not shown) [Example 200], the IC50 was less than 5 µM. Then `Cc1cccc(-c2ccc(S(=O)(=O)N3CCN(C(=O)c4ccccc4)CC3C)s2)n1` (stereo not shown) [Example 137, (3-methyl-4-(5-(6-methylpyridin-2-yl)thiophen-2-ylsulfonyl)piperazin-1-yl)(phenyl)methanone], with more than 5 µM.

For `C[C@@H]1CN(C(=O)c2ccccc2)CCN1C(=O)C(=O)c1ccc(-c2cccs2)cc1` [Example 205], the IC50 was less than 5 µM.

Regarding `C[C@@H]1CN(C(=O)c2ccccc2)CCN1C(=O)C(=O)c1ccc(-c2cncs2)s1` [Example 179], the IC50 is less than 5 µM. Then `CC1CN(C(=O)c2ccccc2)CCN1S(=O)(=O)c1ccc(-c2cccnc2)s1` (stereo not shown) [Example 150, (3-methyl-4-(5-(pyridin-3-yl)thiophen-2-ylsulfonyl)piperazin-1-yl)(phenyl)methanone], with more than 5 µM.

As to `Cc1noc(-c2ccc(S(=O)(=O)N3CCN(C(=O)c4ccccc4)CC3C)s2)n1` (stereo not shown) [Example 107, {3-Methyl-4-[5-(3-methyl-[1,2,4]oxadiazol-5-yl)-thiophene-2-sulfonyl]-piperazin-1-yl}-phenyl-methanone], the IC50 was more than 5 µM. For the molecule `CC1CN(C(=O)c2ccccc2)CCN1S(=O)(=O)c1ccc(-n2cncn2)s1` (stereo not shown) [Example 109, [3-Methyl-4-(5-[1,2,4]triazol-1-yl-thiophene-2-sulfonyl)-piperazin-1-yl]-phenyl-methanone], the IC50 is more than 5 µM.

Take `Cc1nc(-c2ccc(C(=O)C(=O)N3CCN(C(=O)c4ccccc4)C[C@H]3C)cc2)cs1` [Example 104, 1-((R)-4-Benzoyl-2-methyl-piperazin-1-yl)-2-[4-(2-methyl-thiazol-4-yl)-phenyl]-ethane-1,2-dione]: the IC50 is more than 5 µM. Then `C[C@@H]1CN(C(=O)c2ccccc2)CCN1C(=O)C(=O)c1ccc(-c2cc[nH]n2)cc1F` [Example 183], with less than 5 µM. For `CC1CN(C(=O)c2ccccc2)CCN1S(=O)(=O)c1ccc(-c2ccncn2)s1` (stereo not shown) [Example 148, (3-methyl-4-(5-(pyrimidin-4-yl)thiophen-2-ylsulfonyl)piperazin-1-yl)(phenyl)methanone], the IC50 was more than 5 µM.

For `CCOC(=O)c1sc(SC)nc1-n1cc(-c2ccc(S(=O)(=O)N3CCN(C(=O)c4ccccc4)C[C@H]3C)s2)nn1` [Example 130, 4-{4-[5-((R)-4-Benzoyl-2-methyl-piperazine-1-sulfonyl)-thiophen-2-yl]-[1,2,3]triazol-1-yl}-2-methylsulfanyl-thiazole-5-carboxylic acid ethyl ester], the half-maximal inhibitory concentration (IC50) is more than 5 µM.

Consider `C[C@@H]1CN(C(=O)c2ccccc2)CCN1C(=O)C(=O)c1ccc(-c2cncs2)cc1` [Example 176], for which the IC50 is less than 5 µM. Regarding `Cc1cccnc1-c1ccc(S(=O)(=O)N2CCN(C(=O)c3ccccc3)CC2C)s1` (stereo not shown) [Example 139, (3-methyl-4-(5-(3-methylpyridin-2-yl)thiophen-2-ylsulfonyl)piperazin-1-yl)(phenyl)methanone], the IC50 was more than 5 µM. Then `CC1CN(C(=O)c2ccccc2)CCN1S(=O)(=O)c1ccc(C(=O)n2ccnc2)cc1` (stereo not shown) [Example 249], with more than 5 µM; and `C[C@@H]1CN(C(=O)c2ccccc2)CCN1C(=O)C(=O)c1cccc(-c2ccccn2)c1` [Example 252], with more than 5 µM.

Consider `CC1CN(C(=O)c2ccccc2)CCN1S(=O)(=O)c1ccc(-c2ccccc2)s1` (stereo not shown) [Example 145, (3-methyl-4-(5-phenylthiophen-2-ylsulfonyl)piperazin-1-yl)(phenyl)methanone], for which the IC50 is more than 5 µM. Consider `C[C@@H]1CN(C(=O)c2ccccc2)CCN1C(=O)C(=O)c1ccc(-c2cnco2)cc1` [Example 101, 1-((R)-4-Benzoyl-2-methyl-piperazin-1-yl)-2-(4-oxazol-5-yl-phenyl)-ethane-1,2-dione], for which the IC50 was less than 5 µM. As to `CC1CN(C(=O)c2ccccc2)CCN1S(=O)(=O)c1ccc(-c2ccc(-c3ccno3)s2)s1` (stereo not shown) [Example 144, (4-(5′-(isoxazol-5-yl)-2,2′-bithiophen-5-ylsulfonyl)-3-methylpiperazin-1-yl)(phenyl)methanone], the IC50 is less than 5 µM. Then `CC1CN(C(=O)c2ccccc2)CCN1S(=O)(=O)c1ccc(-n2cncn2)cc1` (stereo not shown) [Example 118, [3-Methyl-4-(4-[1,2,4]triazol-1-yl-benzenesulfonyl)-piperazin-1-yl]-phenyl-methanone], with more than 5 µM; and `C[C@@H]1CN(C(=O)c2ccccc2)CCN1C(=O)C(=O)c1ccc(-c2cscn2)cc1` [Example 177], with less than 5 µM; and `C[C@@H]1CN(C(=O)c2ccccc2)CCN1C(=O)C(=O)c1ccc(-c2cc[nH]n2)c(Cl)c1N(C)C` [Example 221], with less than 5 µM.
